Data on four compounds can be found in US20230227466A1, “SUBSTITUTED THIENOPYRIMIDINES THAT INTERACT WITH THE RAS SUPERFAMILY FOR THE TREATMENT OF CANCERS, INFLAMMATORY DISEASES, RASOPATHIES, AND FIBROTIC DISEASE” (SHY Therapeutics, LLC, priority 2020, published 2023).

Assay [1] has as its system MIA-PaCa-2 pancreatic cancer cell line (KRAS G12C). Nature of the assay: Cell proliferation assay (CellTiter 96 Aqueous One). Type of assay: cell-based. The following applies: Homo sapiens. On the procedure: Cell lines: Human tumor-derived cell lines were purchased from American Type Culture Collection. Human tumor-derived pancreatic cancer cell line MIA-PACA2 (having a KRAS G12C mutation) and Panc-1 (having a KRAS G12D mutation), and Human non-small cell lung cancer (NSCLC) cell line A549 (having a KRAS G12S mutation) were grown in complete DMEM-High Glucose. Human colon cancer cell line SW-620 (having a KRAS G12V mutation) was grown in RPMI. All cell lines were supplemented with penicillin (100 U/mL), streptomycin (100 μg/mL), and 10% heat-inactivated FBS at 37° C. in a humidified incubator with 5% CO2.
Method: Cells were plated at 2000 to 5000 cells/well density in 96-wells plate and cultured overnight. Small molecules to be tested were added to the cells in the final concentration of 10 μM in the presence of 0.3% DMSO and 10% FBS, and incubated for 2-4 days at 37° C. in a humidified incubator with 5% CO2. For IC50 value determination, serial dilutions of compounds were added to cells under the same conditions.
Assay: At the end of the incubation period, cell viability was measured using the CellTiter 96® Aqueous One Solution Cell Proliferation Assay according to manufacturer specifications (Promega, Madison, Wis.). The percentage of small molecules inhibition of cellular proliferation was calculated from raw data.

Assay [2] deals with T1, KRas G12D mutant (Homo sapiens, UniProt P01116, G12D).
T1 construct: made in house
Nature of the assay: Ras GTP binding domain inhibition assay (labeled-GTP competition, cell-free). The source says:
(§1) This is a competitive binding assay. It involves the immobilization of a protein on solid phase, interaction with a small molecule drug candidate, and then competitive binding with a labeled native GTP or GDP ligand.
(§2) In theory, the assay is suitable for use with any GTP or GDP binding protein.
(§3) The following method was developed as specific assay for the following proteins: KRas wild type, KRas Q61H mutant, KRas G12C mutant, KRas G12D mutant, Rac-1, and Rho-A.
(§4) The small GTPases proteins: KRas wild type. KRas Q61H mutant, KRas G12C mutant, KRas G12D mutants, Rac-1, and Rho-A were expressed as His-tagged proteins. In addition, the Guanosine nucleotide Exchange Factor (GEF) Sos protein (residues 556-1049) was expressed as a His-tagged protein. In cells, the guanine nucleotide exchange factor Sos protein promotes activation of Ras proteins by stimulating an exchange of GDP for GTP. The inclusion of Sos to the Ras GTP binding domain inhibition assay may be considered as an alternative representation of physiological cellular conditions for evaluating the inhibitory activity of some of the tested small molecules.
(§5) For the assay, all purified small GTPases proteins were diluted in Buffer-I or Buffer-II to a final concentration of 10-30 μg/mL. 200 μL of each diluted protein was added to a nickel-coated 96-well plate and incubated overnight at 4° C. Then the protein solution was discarded and 200 μL of Buffer-I or Buffer-II was added to each well in the presence of 1% DMSO. Compounds to be tested were added to the protein-coated wells at final concentration of 20 μM, and incubated for 3 hours at room temperature with and without 10-30 μg/mL of Sos added to the final hour of the incubation. When performing IC50 measurements a serial dilution of all tested concentrations was added. Then Cy3-GTP or Cy5-GTP was added to each well to a final concentration of 100 nM. The labeled GTP was incubated for 45 minutes at room temperature. Following GTP incubation, wells were washed 3× in Buffer-I or Buffer-II and 200 μL of Buffer-I or Buffer-II was added to each well. Following washes, the amount of bound labeled-GTP was measured using a SpectraMax M3 (Molecular Devices).

Assay [3] concerns the target T2, KRas Q61H mutant (Homo sapiens, UniProt P01116, Q61H).
T2 construct: made in house
The assay is described as above.
Description: as §1, §2, §3, §4, §5

Assay [4] deals with T3, KRas G12C mutant (Homo sapiens, UniProt P01116, G12C).
T3 construct: made in house
Described as above.
Description: as §1, §2, §3, §4, §5

The target of assay [5] is T4, Rho-A (Homo sapiens, UniProt P61586). The description is as above. The arrangement: made in house.
Description: as §1, §2, §3, §4, §5

The target in assay [6] is T5, Rac-1 (Homo sapiens, UniProt P63000). The assay is described as above. Details: made in house.
Description: as §1, §2, §3, §4, §5

Assay [7] addresses T6, KRas wild type (Homo sapiens, UniProt P01116). The assay is described as above. Details: made in house.
Description: as §1, §2, §3, §4, §5

Assay [8] deals with GTP binding domain of Ras (Homo sapiens, UniProt P01112). To be noted: literature (Feuerstein 1987; John 1990); cited from earlier work.
In assay [9] the target is T7, K-Ras (G12D) (Homo sapiens, UniProt P01116, G12D). Nature of the assay: MicroScale Thermophoresis (MST) GTP affinity. The following applies: read-out: MST GTP affinity for binding domain. The source says: (§6) As disclosed in International Application No. PCT/US2018/038613 and U.S. patent application Ser. No. 16/013,872, the affinity of GTP for the GTP binding domain of K-Ras utilizing a Scintillation Proximity Assay (SPA) and MicroScale Thermophoresis (MST) has been measured. These methods were not available when Wittinghofer and colleagues undertook their studies.
(§7) This therefore led to the novel, unanticipated conclusion that compounds such as small molecules could be discovered that would bind to a Ras GTP binding domain and compete with the binding of GTP to Ras.
(§8) See Khawaja et al., “Scintillation proximity assay in lead discovery”, Expert Opin. Drug Discov., 2008 November; 3(11):1267-80 regarding SPA procedures. See the following references regarding MST technology: Wienken et al., Nature Communications (2010), Protein binding assays in biological liquids using MicroScale Thermophoresis; Jerabek-Willemsen et al., ASSAY and Drug Development Technologies (2011), Molecular interaction studies using MicroScale Thermophoresis; Lin et al., Cell (2012), Inhibition of basal FGF receptor signaling by dimeric Grb2; Seidel et al., Angewandte Chemie (2012), Label-Free MicroScale Thermophoresis discriminates sites and affinity of protein-ligand binding; Seidel et al., Methods (2012), MicroScale Thermophoresis quantifies biomolecular interactions under previously challenging conditions; Parker & Newstead, Nature (2014), Molecular basis of nitrate uptake by the plant nitrate transporter NRT1.1; and Jerabek-Willemsen et al., Journal of Molecular Structure (2014), MicroScale Thermophoresis: Interaction analysis and beyond.
In general terms: Microscale thermophoresis detects binding through changes in fluorescence in a small temperature gradient.

Assay [10] deals with T4, Rho-A. Nature of the assay: MicroScale Thermophoresis (MST) GTP affinity. To be noted: read-out: MST GTP affinity for binding domain.
Description: as §6, §7, §8

The target of assay [11] is T5, Rac-1. Nature of the assay: MicroScale Thermophoresis (MST) GTP affinity. To be noted: read-out: MST GTP affinity for binding domain.
Description: as §6, §7, §8

Assay [12] deals with T6, KRas wild type. Nature of the assay: MicroScale Thermophoresis (MST) GTP affinity. To be noted: read-out: MST GTP affinity for binding domain.
Description: as §6, §7, §8

Assay [13] has as its target T8, K-Ras (Q61H) (Homo sapiens, UniProt P01116, Q61H). Nature of the assay: MicroScale Thermophoresis (MST) GTP affinity. The following applies: read-out: MST GTP affinity for binding domain.
Description: as §6, §7, §8

For assay [14], the target named is T9, K-Ras (G12C) (Homo sapiens, UniProt P01116, G12C). Nature of the assay: MicroScale Thermophoresis (MST) GTP affinity. The following applies: read-out: MST GTP affinity for binding domain.
Description: as §6, §7, §8

The target of assay [15] is Rac-1 and Rho-A. Nature of the assay: SPA and MST studies, GTP affinity for Rho subfamily members. To be noted: read-out: affinity of GTP for the binding domain of Rac-1 and Rho-A members of the Rho subfamily.
Description: as §7, §8

The target in assay [16] is T4, Rho-A. Nature of the assay: Scintillation Proximity Assay (SPA) GTP affinity. To be noted: read-out: SPA GTP affinity for binding domain.
Assay [17] has as its target K-Ras GTP binding domain (wild type and mutant K-Ras). Nature of the assay: SPA and MST studies, GTP affinity across K-Ras forms.
Description: as §7, §8

Assay [18] has as its target T7, K-Ras (G12D). Nature of the assay: Scintillation Proximity Assay (SPA) GTP affinity. To be noted: read-out: SPA GTP affinity for binding domain.
Description: as §6, §7, §8
A general note: SPA uses beads or plates that emit light when radiolabelled molecules are held near them.

The target in assay [19] is T6, KRas wild type. Nature of the assay: Scintillation Proximity Assay (SPA) GTP affinity. The following applies: read-out: SPA GTP affinity for binding domain.
Description: as §6, §7, §8

Assay [20] deals with T8, K-Ras (Q61H). Nature of the assay: Scintillation Proximity Assay (SPA) GTP affinity. To be noted: read-out: SPA GTP affinity for binding domain.
Description: as §6, §7, §8

In assay [21] the target is T9, K-Ras (G12C). Nature of the assay: Scintillation Proximity Assay (SPA) GTP affinity. The following applies: read-out: SPA GTP affinity for binding domain.
Description: as §6, §7, §8

The target in assay [22] is T5, Rac-1. Nature of the assay: Scintillation Proximity Assay (SPA) GTP affinity. To be noted: read-out: SPA GTP affinity for binding domain.
Where [23] appears, read: with SOS, read-out: KRas G12D mutant + SOS: % inh.
Where [24] appears, read: without SOS, read-out: KRas G12D mutant: % inh.
[25] abbreviates: with SOS, read-out: KRas Q61H mutant + SOS: % inh.
Setting [26] is: without SOS, read-out: KRas Q61H mutant: % inh.
The mark [27] stands for this setting: with SOS, read-out: KRas G12C mutant + SOS: % inh.
Setting [28] is: without SOS, read-out: KRas G12C mutant: % inh.
Where [29] appears, read: without SOS, read-out: Rho-A: % inh.
Where [30] appears, read: without SOS, read-out: Rac-1: % inh.
The mark [31] stands for this setting: with SOS, read-out: KRas wild type + SOS: % inh.
Setting [32] is: without SOS, read-out: KRas wild type: % inh.

Each structure is given as a SMILES string. Read-outs that look alike come from different tables or passages of the source.

As to `Oc1nc(-c2ccccn2)nc2c(-c3ncccc3F)csc12` [Compound 27, 7-(3-Fluoropyridin-2-yl)-2-(pyridin-2-yl)thieno[3,2-d]pyrimidin-4-ol], the IC50 in assay [1] (MIA PaCa-2, MIA PaCa-2) fell in the range of 1 to 4.99 µM; in assay [3] (with SOS) it was 1000 to 4990 nM. Moreover, the inhibition at 10 µM in assay [1] (10 μM, MIA PaCa-2, read-out: % inh cell proliferation (10 μM) in MIA PaCa-2) is 76 to 100%. For the same compound, the inhibition at 20 µM in [2] (setting [23]) was in the range of 76 to 100%; in [2] (setting [24]) it was 51 to 75%; in [3] (setting [25]) it was 76 to 100%; in [3] (setting [26]), 51 to 75%; in assay [4] (setting [27]), 76 to 100%; in assay [4] (setting [28]) it was 51 to 75%. The inhibition at 20 µM in assay [5] (with SOS, read-out: Rho-A + SOS: % inh.) lay within 76 to 100%; in assay [5] (setting [29]) it was 76 to 100%; in assay [6] (with SOS, read-out: Rac-1 + SOS: % inh.) it was 76 to 100%; in [6] (setting [30]), 76 to 100%; in assay [7] (setting [31]), 76 to 100%; in assay [7] (setting [32]), 76 to 100%.
For the compound `Oc1nc(-c2ccc3[nH]ncc3n2)nc2c(-c3ccccn3)csc12` [Compound 93, 2-(1H-Pyrazolo[4,3-b]pyridin-5-yl)-7-(pyridin-2-yl)thieno[3,2-d]pyrimidin-4-ol], the inhibition at 20 µM in [2] (setting [23]) is 1 to 25%; in assay [2] (setting [24]) it was 26 to 50%; in [3] (setting [25]), 1 to 25%; in assay [3] (setting [26]), 1 to 25%; in [4] (setting [27]), 1 to 25%; in [4] (setting [28]) it was 26 to 50%. Further, the inhibition at 20 µM was 51 to 75% in assay [5] (setting [29]), 1 to 25% in assay [6] (setting [30]), 0% in assay [7] (setting [31]) and 26 to 50% in [7] (setting [32]).
For `Nc1nc2c(ncn2[C@@H]2O[C@H](COP(=O)(O)OP(=O)(O)O)[C@@H](O)[C@H]2O)c(=O)[nH]1` [GDP], in assay [8], the “affinity for the GTP binding domain of Ras” value is recorded as “single to double digit picomolar”.
Consider `Nc1nc2c(ncn2[C@@H]2O[C@H](COP(=O)(O)OP(=O)(O)OP(=O)(O)O)[C@@H](O)[C@H]2O)c(=O)[nH]1` [GTP], for which the Kd amounted to 244 ± 12 nM in assay [9]; 130 ± 5 nM in assay [10]; 166 ± 10 nM in assay [11]; 463 ± 2 nM in assay [12]; 157 ± 21 nM in [13]; 207 ± 46 nM in assay [14]. Besides, the Kd in [15] was 120 to 170 nM; in assay [16], 129 ± 12 nM; in assay [17], 100 to 465 nM; in assay [18], 270 ± 15 nM; in [19], 243 ± 15 nM; in assay [20] it was 118 ± 11 nM. For the same compound, the Kd came out at 258 ± 18 nM in [21] and 151 ± 14 nM in [22]. Further, the “affinity for the GTP binding domain of Ras” value in assay [8] is “single to double digit picomolar”.

As usually defined, the IC50 is the midpoint of a concentration-inhibition curve.
